Measurements from publication PMC6733959, “Synthesis and Evaluations of Novel Apocynin Derivatives as Anti-Glioma Agents” (Frontiers in Pharmacology, 2019).

Columns and labels:
NADPH oxidase (NOX) [1] = assay: NOX activity determination, C6 cells; format: cell-based, rat; details: 20 and 50 μM
Experimental: (§1) The effects of candidate drug on NOX activities were measured using cytochrome c reductase (NADPH) Assay Kit (Sigma-Aldrich, St. Louis, MO, USA). Brieﬂy, after the compound treatment (20, 50 μM), the cells were collected and homogenized in an isotonic buffer ([…]), and centrifuged at 1,000 g to obtain the post-nuclear supernatants. Then 50μl samples were added to 950μl working solution (at 25°C) in a 1ml cuvette and mixed by inversion. Then 20μl cytochrome c oxidase inhibitor solution was added. After reaction with 100 μl NADPH solution, the cytochrome c absorbance was monitored at 550 nm by a spectrophotometer.

C6 glioma = assay: Rat C6 glioma model; format: in vivo; details: C6 glioma-bearing Wistar rats, 25 mg/kg i.p. daily
Experimental: C6 glioma model was established as previously reported ([Xu etal., 2016]). The C6 glioma cells in the logarithmic growth phase were collected for implantation. Male Wistar rats (male, 160–180g) were anesthetized with 10% chloral hydrate, and then a hole (1 mm diameter) was drilled in the cranial bone. C6 cells in PBS were injected slowly (3 × 10^6 cells/rat).
Tumors in the brains of the rats were detected by Bruker 7.0 T Micro-MRI using a T2W RARE sequence (TR/TE 3000/15 ms; slice thickness, 1.0 mm; flip angle, 180°; Matrix 256×256; slice gap, 1.0 mm; FOV, 33×33 mm; time, 4.8 min) 7 days after implantation. Tumor volumes (V) were calculated by the following formula: V = (4/3 × π × LHW)/8, where L is the maximum anteroposterior diameter, H and W are the height and width. Then the rats were sacrificed, and the brain tissues were fixed with formalin, embedded in paraffin, sectioned, and subjected to hematoxylin/eosin (HE) staining and immunohistochemical staining for glial fibrillary acidic protein (GFAP) as previously described ([Xu et al., 2016]). The sections from each animal were analyzed by a pathologist. Only rats with maximum intracerebral tumor diameter of >5.0 mm were used.
After the successful implantation, the rats were randomly divided into […] and treated with different drugs by intraperitoneal injection daily: control group (PBS, n = 6), TMZ group (25 mg/kg, n = 6), D14 group (25 mg/kg, n = 6), and D31 group (25 mg/kg, n = 6). The body weights were recorded everyday after administration. Thirteen days after treatment, brain tumors in the rats were detected by Bruker 7.0 T Micro-MRI as described above. Tumor volumes were calculated and recorded as above.

NADPH oxidase (NOX) [2] = assay: NOX activity determination, U87 cells; format: cell-based, human; details: 20 and 50 μM
Experimental: as §1

rat BMECs = assay: Cytotoxicity of apocynin derivatives on rat BMECs (MTT, 24 h); format: cell-based; details: 100 μM, vs control, P < 0.05
Experimental: Rat brain microvascular endothelial cells (BMECs) were separated from the cerebral cortex of 18-day-old male Sprague-Dawley rats as described previously ([Biegel et al., 1995]). Briefly, the cerebral cortical tissues were dissected from meninges after the rats were sacrificed, then the tissues were homogenated in physiological buffer solution (pH 7.4). After centrifugation, the pellets were collected, and the microvascular segments were then digested with 0.1% collagenase II at 37°C for 1 h. […] The second passage was used for co-culture of BBB cellular models.
Rat BMECs were collected and seeded into 96-well culture plates at a density of 7.5 × 10^3 cells/well overnight. The cells were treated with different concentrations of the compounds (10, 20, and 100 μM) for 24 h, respectively. Then, 20-μl MTT (5 mg/ml) in fresh medium was added to each well and incubated for another 4 h. Finally, 150μl dimethyl sulfoxide (DMSO) was added to dissolve formazan crystals, and the absorbance was detected at 490 nm in a multiwall-plate reader (BioTek ELx800).

In the case of `COc1cc(C(=O)CSCc2ccccc2Cl)ccc1O` [Compound D31, 2-((2-Chlorobenzyl)thio)-1-(4-Hydroxy-3-Methoxyphenyl)Ethan-1-One], the “Effect on NOX activities vs control” value (NADPH oxidase (NOX) [1]) was “no obvious effects”, the “Body weight changes vs control group” value (C6 glioma) was “no obvious body weight changes” and the “Tumor volume vs control group” value (C6 glioma; MRI 13 days after treatment) was “significantly decreased”. The “Effect on NOX activities vs control” value (NADPH oxidase (NOX) [2]) was “no obvious effects” and the “Effect on cell viability of rat BMECs” value (rat BMECs) was “significantly inhibit the cell viability”.
